Measurements from patent US9616053B2, “Indolin-2-one or pyrrolo-pyridin/pyrimidin-2-one derivatives” (Hoffmann-La Roche Inc., priority 2013, dated 2017).

How the values were obtained:
[1] = system: L-687,414-induced hyperlocomotion; test: L-687,414-induced hyperlocomotion (Digiscan locomotor activity); type: in vivo, mouse; settings: Mus musculus, at the same time as s.c. 50 mg/kg L-687,414, mice; for inhibition at 30 mg/kg: dose ip 30 mg/kg
Excerpt: The authors described that hyperlocomotion induced by L-687,414 was inhibited by a series of known antipsychotic drugs. […] These findings predict antipsychotic activity for the present compounds, making them useful for the treatment of positive (psychosis) and negative symptoms of schizophrenia, substance abuse, alcohol and drug addiction, obsessive-compulsive disorders, cognitive impairment, bipolar disorders, mood disorders, major depression, resistant depression, anxiety disorders, Alzheimer's disease, autism, Parkinson's disease, chronic pain, borderline personality disorder, sleep disturbances, chronic fatigue syndrome, stiffness, antiinflammatory effects in arthritis and balance problems.
The described compounds of formula I reduce L-687,414-induced hyperlocomotion. This was assessed by using a computerized Digiscan 16 Animal Activity Monitoring System (Omnitech Electronics, Columbus, Ohio) to quantify locomotor activity. Animals were kept under a 12 h light/dark cycle and experiments were performed during the light period. Each activity monitoring chamber consisted of a Plexiglas box (41×41×28 cm; W×L×H) with sawdust bedding on the floor surrounded by invisible horizontal and vertical infrared sensor beams. The test boxes were divided by a Plexiglas cross providing each mouse with 20×20 cm of moving space. Cages were connected to a Digiscan Analyzer linked to a computer that constantly collected the beam status information. Records of photocell beam interruptions for individual animals were taken every 5 min over the duration of the experimental session and the sum of the first 6 periods was used as the final parameter. Compounds were administered either p.o. 15 min before a s.c. injection of 50 mg/kg of L-687,414, or i.p. at the same time as a s.c. injection of 50 mg/kg of L-687,414. Mice were then transferred from their home cage to the recording chambers for a 15-min habituation phase allowing free exploration of the new environment. Horizontal activity was then recorded for a 30-min time period. The % inhibition of L-687,414-induced hyperlocomotion was calculated according to the equation: ((Veh+L-687,414 horizontal activity−drug+L-687,414 horizontal activity)Veh+L-687,414 horizontal activity)×100
ID50 values, defined as doses of each compound producing 50% inhibition of L-687,414-induced hyperlocomotion, were calculated by linear regression analysis of a dose-response data using an Excel-based computer-fitting program.
As data was not presupposed to be normally distributed, groups treated with test compounds were statistically compared with the control (vehicle-treated) group using one-tailed Mann Whitney U tests. In statistics, the Mann-Whitney Utest (also called the Mann-Whitney-Wilcoxon (MWW) or Wilcoxon rank-sum test) is a non-parametric statistical hypothesis test for assessing whether one of two samples of independent observations tends to have larger values than the other. It is one of the most well-known non-parametric significance tests. […] P values given in table 1 are one-tailed since only decreases in locomotion were expected and tested for (Mann, H. B., Whitney, D. R. (1947), “On a Test of Whether one of Two Random Variables is Stochastically Larger than the Other”, Annals of Mathematical Statistics, 18 (1), 50-60).

[2] = system: behaviors of compound-treated mice; test: SmartCube behavioral signature and similarity analysis; type: in vivo; set-up: key to discrimination rate vs Clozapine / discrimination rate vs Olanzapine / discrimination rate vs Risperidone: discrimination rate as fraction; 0.5 = zero distinguishability; settings: 25 mg/kg i.p.; for SmartCube behavioral signature: compared with reference drug classes; for discrimination rate vs Clozapine / discrimination rate vs Olanzapine / discrimination rate vs Risperidone: rate of 0.70 or lower = similar
Excerpt: In addition to the reversal of L-687,414 induced hyperlocomotion experiment as described above, some compounds of the present invention have been tested in SmartCube®, an automated system in which the behaviors of compound-treated mice in response to multiple challenges are captured by digital video and analyzed with computer algorithms (Roberds et al., Frontiers in Neuroscience, 2011, Vol. 5, Art. 103, 1-4). In this way, the neuro-pharmacological effects of a test compound can be predicted by similarity to major classes of compounds, such as antipsychotics, anxiolytics and antidepressants.
As mentioned above, some compounds have been tested in SmartCube®, an analytical system developed by PsychoGenics Inc.
SmartCube® was used to compare the behavioral signature of a test compound to a database of behavioral signatures obtained from a large set of clinically approved reference drugs, grouped per indications. In this way, the neuro-pharmacological effects of a test compound can be predicted by similarity to major classes of compounds, such as antipsychotics, anxiolytics and antidepressants. This approach is ideally suited to screen collections of existing drugs or drug candidates with previously unknown neuropharmacology, which could expedite the development of new and unexpected treatments for psychiatric disorders.
Some compounds of the present invention were injected i.p. at different doses 15 minutes before the test. At least 8 mice were used in each treatment group. Digital videos of the subjects were processed with computer vision algorithms to extract over 2000 dependent measures including frequency and duration of many different behavioral states. The results of the classifications are presented as bar charts for each compound and dose (mg/kg), the Y-axis indicates the relative probability that the test compound will show efficacy in the specific CNS indication.
Compounds of the present invention show similar signatures to those of atypical antipsychotics. An independent analysis was performed on the unclassified data to determine the similarity of the example compounds to active doses of known atypical antipsychotics. For this analysis, we use discrimination rate as the measure of separability between the two drugs, i.e. one drug's “distinguishability” from another. A rate equal to 50% (or 0.5) corresponds to zero distinguishability. […] In most cases, the example compounds show a similarity to risperidone, clozapine and olanzapine with a discrimination rate of ≦0.70.

Row | SMILES | inhibition at 30 mg/kg [1] [%] | further results
1 | CN1C(=O)C(C)(C)c2ccc(-c3cccnn3)cc21 [Example 13, 1,3,3-Trimethyl-6-(pyridazin-3-yl)indolin-2-one] | 76.9 | SmartCube behavioral signature [2]: similarity to atypical antipsychotics; discrimination rate vs Clozapine [2]: 0.69; discrimination rate vs Olanzapine [2]: 0.70; discrimination rate vs Risperidone [2]: 0.72
2 | Cc1ncc(-c2ccc3c(c2)N(CCCS(=O)(=O)C2CC2)C(=O)C3(C)C)cn1 [Example 54, 1-(3-(Cyclopropylsulfonyl)propyl)-3,3-dimethyl-6-(2-methylpyrimidin-5-yl)indolin-2-one] | – | SmartCube behavioral signature [2]: similarity to atypical antipsychotics; discrimination rate vs Clozapine [2]: 0.69; discrimination rate vs Olanzapine [2]: 0.61; discrimination rate vs Risperidone [2]: 0.63
3 | CC1(C)C(=O)Nc2cc(-n3ccnc3)ccc21 [Example 58, 6-Imidazol-1-yl-3,3-dimethyl-1,3-dihydro-indol-2-one] | – | SmartCube behavioral signature [2]: similarity to atypical antipsychotics; discrimination rate vs Clozapine [2]: 0.63; discrimination rate vs Olanzapine [2]: 0.69; discrimination rate vs Risperidone [2]: 0.66
4 | Cc1ncc(-c2ccc3c(c2)N(C)C(=O)C3(C)C)o1 [Example 71, 1,3,3-Trimethyl-6-(2-methyloxazol-5-yl)indolin-2-one] | 68.5 | SmartCube behavioral signature [2]: similarity to atypical antipsychotics; discrimination rate vs Clozapine [2]: 0.79; discrimination rate vs Olanzapine [2]: 0.66; discrimination rate vs Risperidone [2]: 0.63
5 | Cc1ncc(-c2cc3c(cn2)C(C)(C)C(=O)N3)cn1 [Example 92, 3,3-Dimethyl-6-(2-methylpyrimidin-5-yl)-1H-pyrrolo[3,2-c]pyridin-2-one] | 80.9 | –
6 | Cc1nnc(-c2ccc3c(c2)N(C)C(=O)C3(C)C)o1 [Example 93, 1,3,3-Trimethyl-6-(5-methyl-1,3,4-oxadiazol-2-yl)indolin-2-one] | 68.6 | –
7 | Cc1nnc(-c2ccc3c(c2)NC(=O)C3(C)C)o1 [Example 106, 3,3-Dimethyl-6-(5-methyl-1,3,4-oxadiazol-2-yl)indolin-2-one] | 75.7 | –
8 | CC1(C)C(=O)Nc2cc(-c3cn(C4CC4)cn3)ccc21 [Example 113, 6-(1-Cyclopropyl-1H-imidazol-yl)-3,3-dimethylindolin-2-one] | 83.9 | –
9 | Cc1cc(-c2ncc3c(n2)N(C2CC2)C(=O)C3(C)C)ccn1 [Example 114, 7-Cyclopropyl-5,5-dimethyl-2-(2-methylpyridin-4-yl)-5H-pyrrolo[2,3-d]pyrimidin-6(7H)-one] | – | inhibition at 20 mg/kg ([1]; dose ip 20 mg/kg): 42%
10 | Cc1ncc(-c2ccc3c(c2)N(CCOC(F)(F)F)C(=O)C3(C)C)cn1 [Example 128, 3,3-Dimethyl-6-(2-methylpyrimidin-5-yl)-1(2-(trifluoromethoxy)ethyl)indolin-2-one] | 66.1 | –
11 | Cc1ncc(-c2ccc3c(c2)N(CC2COC2)C(=O)C3(C)C)cn1 [Example 129, 3,3-Dimethyl-6-(2-methylpyrimidin-5-yl)-1-(oxetan-3-ylmethyl)indolin-2-one] | 95.5 | –
12 | Cc1ncc(-c2ccc3c(c2)N(CC(O)C(F)(F)F)C(=O)C3(C)C)cn1 (centres unmarked) [Example 130, 3,3-Dimethyl-6-(2-methylpyrimidin-5-yl)-1-(3,3,3-trifluoro-2-hydroxypropyl)indolin-2-one] | 89.4 | –
13 | Cc1ncc(-c2ccc3c(c2)N(CCCF)C(=O)C3(C)C)cn1 [Example 131, 1-(3-Fluoropropyl)-3,3-dimethyl-6-(2-methylpyrimidin-5-yl)indolin-2-one] | 95.3 | –
14 | Cc1ncc(-c2ccc3c(c2)N(CCF)C(=O)C3(C)C)cn1 [Example 132, 1-(2-Fluoroethyl)-3,3-dimethyl-6-(2-methylpyrimidin-5-yl)indolin-2-one] | 95.3 | –
15 | CCn1cnc(-c2ccc3c(c2)N(C)C(=O)C3(C)C)c1 [Example 133, 6-(1-Ethyl-1H-imidazol-4-yl)-1,3,3-trimethylindolin-2-one] | 44 | –
16 | CN1C(=O)C(C)(C)c2ccc(-c3cn(CC(F)(F)F)cn3)cc21 [Example 134, 1,3,3-Trimethyl-6-(1-(2,2,2-trifluoroethyl)-1H-imidazol-4-yl)indolin-2-one] | 79.8 | –
17 | Cc1cc(-c2cc3c(cn2)C2(CC2)C(=O)N3C)ccn1 [Example 136, 1′-Methyl-6′-(2-methylpyridin-4-yl)spiro[cyclopropane-1,3′-pyrrolo[3,2-c]pyridin]-2′(1′H)-one] | 89.7 | –
18 | O=C1N(C2CC2)c2cc(-c3cccnc3)ncc2C12CC2 [Example 140, 1′-Cyclopropyl-6′-(pyridin-3-yl)spiro[cyclopropane-1,3′-pyrrolo[3,2-c]pyridin]-2′(1′H)-one] | 69.3 | –
19 | Cc1cc(-c2ccc3c(c2)N(C)C(=O)C3(C)C)on1 [Example 143, 1,3,3-Trimethyl-6-(3-methylisoxazol-5-yl)indolin-2-one] | 65.7 | –
20 | CC1(C)C(=O)Nc2cc(-n3cnc(C(O)C(F)(F)F)c3)ccc21 (centres unmarked) [Example 168, 3,3-Dimethyl-6-[4-(2,2,2-trifluoro-1-hydroxy-ethyl)imidazol-1-yl]indolin-2-one] | 77 | –
21 | COCC(CN1C(=O)C(C)(C)c2ccc(-c3cnc(C)nc3)cc21)OC (centres unmarked) [Example 175, 1-(2,3-dimethoxypropyl)-3,3-dimethyl-6-(2-methylpyrimidin-5-yl)indolin-2-one] | 95.3 | –
